Laboratory results as given in paper PMC5681660, “Reduced hepatitis B and D viral entry using clinically applied drugs as novel inhibitors of the bile acid transporter NTCP” (Scientific Reports, 2017).
Counter-ions that a name gives are not always drawn. Like-named read-outs stand apart in the source and are kept apart here.

How the values were obtained:
human NTCP [1] = molecular target: T1, human NTCP (Homo sapiens, UniProt Q14973); assay: Screening taurocholate uptake assay (96-well, [14C]taurocholate, 10 µM drug)
T1 sequence (Q14973 1-349): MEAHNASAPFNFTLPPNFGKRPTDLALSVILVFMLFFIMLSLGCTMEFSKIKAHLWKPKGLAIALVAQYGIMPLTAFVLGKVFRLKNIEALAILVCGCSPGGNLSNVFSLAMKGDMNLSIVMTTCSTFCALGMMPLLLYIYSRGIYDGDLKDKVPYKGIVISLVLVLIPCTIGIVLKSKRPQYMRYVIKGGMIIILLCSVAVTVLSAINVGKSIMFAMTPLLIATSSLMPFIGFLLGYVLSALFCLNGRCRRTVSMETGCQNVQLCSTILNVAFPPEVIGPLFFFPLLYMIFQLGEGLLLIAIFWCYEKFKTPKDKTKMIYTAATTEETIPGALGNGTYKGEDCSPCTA

human NTCP [2] = molecular target: T1, human NTCP; assay: Screening fluorescent competitive Myrcludex B-FITC binding assay (96-well, 10 µM drug)
[3] = combined ranking from functional and binding screening assays
[4] = screen, 10 µM drug, taurocholate uptake
[5] = screen, 10 µM drug, Myrcludex B-FITC binding
[6] = Prestwick library screen, 10 µM drug, B-score of taurocholate uptake
[7] = combined ranking from functional and binding assay B-scores
[8] = Prestwick library screen, 10 µM drug, B-score of Myrcludex B-FITC binding
[9] = Prestwick library screen, taurocholate uptake, 10 µM drug
[10] = ranking score beside the functional and binding assay B-scores of the screen
[11] = Prestwick library screen, Myrcludex B-FITC binding, 10 µM drug

Structure (SMILES)	Ranking score (human NTCP [1]; [3])	B-score functional assay (human NTCP [1]; [4])	B-score binding assay (human NTCP [2]; [5])	B-score functional assay (human NTCP [1]; [9])	Ranking score (human NTCP [1]; [10])	B-score binding assay (human NTCP [2]; [11])	other results
C[N+](C)(CCOc1ccccc1)Cc1ccccc1.O=C([O-])c1cc2ccccc2cc1O [Bephenium hydroxynaphthoate]	452.073	-0.101	-0.482				
CCCOc1ccc(C(=O)OCCN(CC)CC)cc1N [Proparacaine hydrochloride]							B-score functional assay (human NTCP [1]; [6]): 0.236; Ranking score (human NTCP [1]; [7]): 984.211; B-score binding assay (human NTCP [2]; [8]): 1.832
C[C@]12CC[C@@H](O)C[C@H]1CC[C@@H]1[C@@H]2CC[C@]2(C)C(=O)CC[C@@H]12 [3-alpha-Hydroxy-5-beta-androstan-17-one]							B-score functional assay (human NTCP [1]): -2.764; Ranking score (human NTCP [1]): 235.83; B-score binding assay (human NTCP [2]): 0.051
CC(NCCC(c1ccccc1)c1ccccc1)c1ccccc1 (stereo not drawn) [Fendiline hydrochloride]							B-score functional assay (human NTCP [1]; [6]): 0.662; Ranking score (human NTCP [1]; [7]): 880.552; B-score binding assay (human NTCP [2]; [8]): 0.223
CO[C@@H]1[C@@H](O[C@@H]2O[C@H](C)[C@@H](O[C@H]3C[C@@](C)(O)[C@@H](OC(=O)CC(C)C)[C@H](C)O3)[C@H](N(C)C)[C@H]2O)[C@@H](CC=O)C[C@@H](C)[C@@H](O)/C=C/C=C/C[C@@H](C)OC(=O)C[C@H]1OC(C)=O [Josamycin]				0.552	744.048	-0.039	
CO[C@H]1C[C@H](O[C@H]2[C@H](C)[C@@H](O[C@@H]3O[C@H](C)C[C@H](N(C)C)[C@H]3OC(C)=O)[C@@H](C)C[C@@]3(CO3)C(=O)[C@H](C)[C@@H](OC(C)=O)[C@@H](C)[C@@H](C)OC(=O)[C@@H]2C)O[C@@H](C)[C@@H]1OC(C)=O [Troleandomycin]				-0.071	732.508	0.633	
CCOC(=O)[C@H](CCc1ccccc1)N[C@H]1CCc2ccccc2N(CC(=O)O)C1=O [Benazepril HCl]							B-score functional assay (human NTCP [1]; [6]): 1.384; Ranking score (human NTCP [1]; [7]): 918.755; B-score binding assay (human NTCP [2]; [8]): 0.109
C[C@]12CC[C@@H]3c4ccc(O)cc4CC[C@H]3[C@@H]1CCC2=O [Estrone]							B-score functional assay (human NTCP [1]; [6]): 0.06; Ranking score (human NTCP [1]; [7]): 855.9; B-score binding assay (human NTCP [2]; [8]): 0.944
COc1c2occc2c(OC)c2c(=O)cc(C)oc12 [Khellin]	450.763	0.111	-0.883				
CCCSc1ccc2nc(NC(=O)OC)[nH]c2c1 [Albendazole]							B-score functional assay (human NTCP [1]): -0.13; Ranking score (human NTCP [1]): 731.855; B-score binding assay (human NTCP [2]): 0.993
O=C(O)C(O)C(O)C(=O)O.O=C(c1ccc(F)cc1)C1CCN(CCn2c(=O)[nH]c3ccccc3c2=O)CC1 [Ketanserin tartrate hydrate]				0.482	727.865	-0.046	
Cn1c(=O)c2[nH]cnc2n(C)c1=O [Theophylline monohydrate]	321.683	-1.998	0.205				
CC(=O)N1CCN(c2ccc(OCC3COC(Cn4ccnc4)(c4ccc(Cl)cc4Cl)O3)cc2)CC1 (stereo not drawn) [Ketoconazole]	349.5	0.044	-1.382				
Nc1nc(/C(=C/CC(=O)O)C(=O)N[C@@H]2C(=O)N3C(C(=O)O)=CCS[C@H]23)cs1 [Ceftibuten]							B-score functional assay (human NTCP [1]; [6]): 0.671; Ranking score (human NTCP [1]; [7]): 1026.13; B-score binding assay (human NTCP [2]; [8]): 1.253
Nc1ccc(O)c(C(=O)O)c1 [Mesalamine]				-0.331	739.887	2.828	
Cn1c(=O)c2c(ncn2CC(O)CO)n(C)c1=O (stereo not drawn) [Diprophylline]				-0.019	816.025	1.219	
Nc1ccc(C(=O)O)c(O)c1 [4-aminosalicylic acid]	360.074	-0.405	-0.683				
O=C(Cn1ccnc1[N+](=O)[O-])NCCO [Etanidazole]				-0.015	680.728	0.108	

Structure (SMILES)	Ranking score (human NTCP [1]; [3])	B-score functional assay (human NTCP [1]; [4])	B-score binding assay (human NTCP [2]; [5])	B-score functional assay (human NTCP [1]; [9])	Ranking score (human NTCP [1]; [10])	B-score binding assay (human NTCP [2]; [11])	other results
CC(C(O)c1ccc(O)cc1)N1CCC(Cc2ccccc2)CC1.CC(C(O)c1ccc(O)cc1)N1CCC(Cc2ccccc2)CC1.O=C(O)C(O)C(O)C(=O)O (stereo not drawn) [Ifenprodil tartrate]				1.465	727.635	-0.263	
Cc1nc2ccccn2c(=O)c1CCN1CCC(C(=O)c2ccc(F)cc2)CC1 [Pirenperone]				-0.092	829.554	3.342	
CC(C)c1cccc(C(C)C)c1O [Propofol]							B-score functional assay (human NTCP [1]): -4.147; Ranking score (human NTCP [1]): 144.551; B-score binding assay (human NTCP [2]): -0.036
COc1ccc2cc(CCC(C)=O)ccc2c1 [Nabumetone]	286.691	-0.236	-1.377				
Cc1cc(N)c2ccccc2[n+]1CCCCCCCCCC[n+]1c(C)cc(N)c2ccccc21 [Dequalinium dichloride]				-0.527	680.714	3.994	
C[C@@H]1CN([C@H]2CC[C@](C#N)(c3ccc(F)cc3)CC2)CC[C@]1(C(=O)O)c1ccccc1 [Levocabastine hydrochloride]				-0.031	801.329	1.175	
CC(C)(Oc1ccc(Cl)cc1)C(=O)O [Clofibric acid]							B-score functional assay (human NTCP [1]; [6]): 1.224; Ranking score (human NTCP [1]; [7]): 881.708; B-score binding assay (human NTCP [2]; [8]): 0.048
CC(=O)OCC(=O)[C@@]12N=C(C)O[C@@H]1C[C@H]1[C@@H]3CCC4=CC(=O)C=C[C@]4(C)[C@H]3[C@@H](O)C[C@@]12C [Deflazacort]	446.866	0.131	-0.898				
COc1ccc(CN2CCNCC2)c(OC)c1OC [Trimetazidine dihydrochloride]	350.668	0.211	-1.545				
CC(=O)CC(c1ccccc1)c1c(O)c2ccccc2oc1=O (stereo not drawn) [Warfarin]	391.491	-1.345	0.123				
Nc1nc(=O)c2nc(CNc3ccc(C(=O)N[C@@H](CCC(=O)O)C(=O)O)cc3)cnc2[nH]1 [Folic acid]	436.211	-0.57	-0.117				
Cc1c(OCC(F)(F)F)ccnc1C[S+]([O-])c1nc2ccccc2[nH]1 (stereo not drawn) [Lansoprazole]							B-score functional assay (human NTCP [1]; [6]): 1.884; Ranking score (human NTCP [1]; [7]): 961.173; B-score binding assay (human NTCP [2]; [8]): 0.157
NC12CC3CC(CC(C3)C1)C2.O=C(O)/C=C/C(=O)O [Adamantamine fumarate]				-0.004	748.28	0.399	
CC1CNc2c(cccc2S(=O)(=O)N[C@@H](CCCNC(=N)N)C(=O)N2CC[C@@H](C)C[C@@H]2C(=O)O)C1 (stereo partly drawn) [Argatroban]				-0.168	668.874	0.437	
CCCCCCCCNC(C)C(O)c1ccc(SC(C)C)cc1 (stereo not drawn) [Suloctidil]	345.514	4.189	-2.148				
[H]/N=C(/N)NS(=O)(=O)c1ccc(N)cc1 [Sulfaguanidine]				-0.516	669.134	2.333	
C[C@]12CCC(=O)C(O)=C1CC[C@@H]1[C@@H]2CC[C@]2(C)C(=O)CC[C@@H]12 [Formestane]							B-score functional assay (human NTCP [1]): -0.613; Ranking score (human NTCP [1]): 420.899; B-score binding assay (human NTCP [2]): -0.147
O=C(O)c1ccccc1OP(=O)(O)O [Fosfosal]	393.853	-0.869	-0.072				
